Legend:
PAR1 [1] = molecular target: T1, PAR1 (UniProt P25116); experiment: Emax (maximal agonist-induced change in ebBRET relative to vehicle) (% of vehicle response (amplitude of change)); higher = larger response (for Gs, larger decrease in membrane ebBRET, i.e. stronger Gs activation)
T1 sequence (whole entry): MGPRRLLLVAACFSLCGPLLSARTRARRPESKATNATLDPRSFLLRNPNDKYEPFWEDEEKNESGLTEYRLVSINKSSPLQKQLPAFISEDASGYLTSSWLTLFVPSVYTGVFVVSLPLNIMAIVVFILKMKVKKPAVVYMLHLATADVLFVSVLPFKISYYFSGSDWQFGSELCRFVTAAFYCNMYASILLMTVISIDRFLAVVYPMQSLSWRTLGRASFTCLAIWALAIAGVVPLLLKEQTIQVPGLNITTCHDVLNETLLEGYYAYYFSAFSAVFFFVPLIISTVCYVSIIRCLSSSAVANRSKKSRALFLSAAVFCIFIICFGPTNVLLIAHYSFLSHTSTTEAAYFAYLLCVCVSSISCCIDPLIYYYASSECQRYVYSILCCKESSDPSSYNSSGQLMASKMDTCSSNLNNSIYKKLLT

PAR1 [2] = molecular target: T1, PAR1; experiment: pEC50 of agonist-induced pathway activation (ebBRET)
P2Y2 [3] = molecular target: P2Y2 (UniProt P41231); experiment: Emax (maximal agonist-induced change in ebBRET relative to vehicle) (% of vehicle response (amplitude of change)); higher = larger response (for Gs, larger decrease in membrane ebBRET, i.e. stronger Gs activation)
P2Y2 [4] = molecular target: P2Y2 (UniProt P41231); experiment: pEC50 of agonist-induced pathway activation (ebBRET)
CRFR2 [5] = molecular target: T2, CRFR2 (UniProt Q13324); experiment: Emax (maximal agonist-induced change in ebBRET relative to vehicle) (% of vehicle response (amplitude of change)); higher = larger response (for Gs, larger decrease in membrane ebBRET, i.e. stronger Gs activation)
T2 sequence (whole entry): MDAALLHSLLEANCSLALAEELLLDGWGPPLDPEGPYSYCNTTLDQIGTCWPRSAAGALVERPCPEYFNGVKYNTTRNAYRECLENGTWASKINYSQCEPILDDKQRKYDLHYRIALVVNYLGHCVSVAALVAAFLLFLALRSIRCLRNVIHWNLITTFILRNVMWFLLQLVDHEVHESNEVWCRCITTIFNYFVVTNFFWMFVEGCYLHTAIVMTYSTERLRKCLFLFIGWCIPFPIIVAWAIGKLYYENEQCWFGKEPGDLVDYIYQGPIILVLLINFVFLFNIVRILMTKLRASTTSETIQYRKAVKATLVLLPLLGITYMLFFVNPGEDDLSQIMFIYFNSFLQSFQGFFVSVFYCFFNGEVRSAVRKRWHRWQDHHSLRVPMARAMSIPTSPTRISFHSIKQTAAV

CRFR2 [6] = molecular target: T2, CRFR2; experiment: pEC50 of agonist-induced pathway activation (ebBRET)
GPR39 [7] = molecular target: T3, GPR39 (UniProt O43194); experiment: Emax (maximal agonist-induced change in ebBRET relative to vehicle) (% of vehicle response (amplitude of change)); higher = larger response (for Gs, larger decrease in membrane ebBRET, i.e. stronger Gs activation)
T3 sequence (whole entry): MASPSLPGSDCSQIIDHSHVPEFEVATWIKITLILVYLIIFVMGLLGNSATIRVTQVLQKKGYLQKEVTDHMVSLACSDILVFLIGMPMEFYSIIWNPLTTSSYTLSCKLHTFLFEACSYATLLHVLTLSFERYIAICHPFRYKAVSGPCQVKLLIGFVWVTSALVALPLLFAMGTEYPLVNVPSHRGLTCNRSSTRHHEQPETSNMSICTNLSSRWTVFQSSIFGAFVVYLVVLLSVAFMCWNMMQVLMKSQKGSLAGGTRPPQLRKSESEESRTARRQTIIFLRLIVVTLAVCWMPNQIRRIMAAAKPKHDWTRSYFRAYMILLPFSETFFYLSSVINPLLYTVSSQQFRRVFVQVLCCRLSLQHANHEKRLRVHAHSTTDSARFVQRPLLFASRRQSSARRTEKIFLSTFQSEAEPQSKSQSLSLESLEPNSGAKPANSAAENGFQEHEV

GPR39 [8] = molecular target: T3, GPR39; experiment: pEC50 of agonist-induced pathway activation (ebBRET)
FFA4 [9] = experiment: Emax (maximal agonist-induced change in ebBRET relative to vehicle) (% of vehicle response (amplitude of change)); higher = larger response (for Gs, larger decrease in membrane ebBRET, i.e. stronger Gs activation)
FFA4 [10] = experiment: pEC50 of agonist-induced pathway activation (ebBRET)
[11] = pathway (G protein / arrestin sensor): G11
[12] = pathway (G protein / arrestin sensor): G13
[13] = pathway (G protein / arrestin sensor): G14
[14] = pathway (G protein / arrestin sensor): G15
[15] = pathway (G protein / arrestin sensor): Gi1
[16] = pathway (G protein / arrestin sensor): Gi2
[17] = pathway (G protein / arrestin sensor): GoA
[18] = pathway (G protein / arrestin sensor): GoB
[19] = pathway (G protein / arrestin sensor): Gq
[20] = pathway (G protein / arrestin sensor): Gz
[21] = pathway (G protein / arrestin sensor): βarr1/GRK2
[22] = pathway (G protein / arrestin sensor): βarr2
[23] = pathway (G protein / arrestin sensor): βarr2/GRK2
[24] = pathway (G protein / arrestin sensor): Gs

P2Y2, sequence (P41231 whole entry): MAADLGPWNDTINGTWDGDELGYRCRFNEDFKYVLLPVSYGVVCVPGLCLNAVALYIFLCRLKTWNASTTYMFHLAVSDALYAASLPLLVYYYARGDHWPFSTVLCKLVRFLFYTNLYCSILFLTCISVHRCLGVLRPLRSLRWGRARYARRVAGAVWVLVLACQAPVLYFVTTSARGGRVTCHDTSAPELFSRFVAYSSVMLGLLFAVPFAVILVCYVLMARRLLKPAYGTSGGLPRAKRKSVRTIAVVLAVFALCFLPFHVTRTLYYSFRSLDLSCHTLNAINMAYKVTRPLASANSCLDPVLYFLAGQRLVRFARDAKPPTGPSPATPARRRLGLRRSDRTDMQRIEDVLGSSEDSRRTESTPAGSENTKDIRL

SMILES: CC(C)C[C@H](NC(=O)[C@H](CC(C)C)NC(=O)[C@H](Cc1ccccc1)NC(=O)[C@@H](N)[C@@H](C)O)C(=O)N[C@@H](CCCN=C(N)N)C(N)=O [TFLLR-NH2]
- Emax (PAR1 [1]; [11]): 382
- Emax (PAR1 [1]; [12]): 193
- Emax (PAR1 [1]; [13]): 405
- Emax (PAR1 [1]; [14]): 332
- Emax (PAR1 [1]; [15]): 574
- Emax (PAR1 [1]; [16]): 177
- Emax (PAR1 [1]; [17]): 73
- Emax (PAR1 [1]; [18]): 221
- Emax (PAR1 [1]; [19]): 238
- Emax (PAR1 [1]; [20]): 144
- Emax (PAR1 [1]; [21]): 446
- Emax (PAR1 [1]; [22]): 439
- Emax (PAR1 [1]; [23]): 470
- pEC50 (PAR1 [2]; [11]): 6.55
- pEC50 (PAR1 [2]; [12]): 7.11
- pEC50 (PAR1 [2]; [13]): 5.74
- pEC50 (PAR1 [2]; [14]): 6.22
- pEC50 (PAR1 [2]; [15]): 4
- pEC50 (PAR1 [2]; [16]): 5.04
- pEC50 (PAR1 [2]; [17]): 5.89
- pEC50 (PAR1 [2]; [18]): 6
- pEC50 (PAR1 [2]; [19]): 6.72
- pEC50 (PAR1 [2]; [20]): 6.41
- pEC50 (PAR1 [2]; [21]): 5.08
- pEC50 (PAR1 [2]; [22]): 5.12
- pEC50 (PAR1 [2]; [23]): 5.18

SMILES: O=c1ccn([C@@H]2O[C@H](COP(=O)(O)OP(=O)(O)OP(=O)(O)O)[C@@H](O)[C@H]2O)c(=O)[nH]1 [UTP]
- Emax (P2Y2 [3]; [11]): 26.1
- Emax (P2Y2 [3]; [13]): 26.7
- Emax (P2Y2 [3]; [14]): 198
- Emax (P2Y2 [3]; [15]): 59.2
- Emax (P2Y2 [3]; [16]): 25.9
- Emax (P2Y2 [3]; [17]): 85.7
- Emax (P2Y2 [3]; [18]): 54.5
- Emax (P2Y2 [3]; [19]): 29.2
- Emax (P2Y2 [3]; [20]): 91.8
- Emax (P2Y2 [3]; [21]): 185
- Emax (P2Y2 [3]; [22]): 346
- Emax (P2Y2 [3]; [23]): 94.7
- pEC50 (P2Y2 [4]; [11]): 6.43
- pEC50 (P2Y2 [4]; [13]): 6.29
- pEC50 (P2Y2 [4]; [14]): 6.08
- pEC50 (P2Y2 [4]; [15]): 6.29
- pEC50 (P2Y2 [4]; [16]): 6.54
- pEC50 (P2Y2 [4]; [17]): 5.94
- pEC50 (P2Y2 [4]; [18]): 6.37
- pEC50 (P2Y2 [4]; [19]): 6.4
- pEC50 (P2Y2 [4]; [20]): 6.04
- pEC50 (P2Y2 [4]; [21]): 5.24
- pEC50 (P2Y2 [4]; [22]): 4.99
- pEC50 (P2Y2 [4]; [23]): 5.36

SMILES: CC[C@H](C)[C@H](N)C(=O)N[C@H](C(=O)N[C@@H](CC(C)C)C(=O)N[C@@H](CO)C(=O)N[C@@H](CC(C)C)C(=O)N[C@@H](CC(=O)O)C(=O)N[C@H](C(=O)N1CCC[C@H]1C(=O)N[C@H](C(=O)NCC(=O)N[C@@H](CC(C)C)C(=O)N[C@@H](CC(C)C)C(=O)N[C@@H](CCC(N)=O)C(=O)N[C@H](C(=O)N[C@@H](CC(C)C)C(=O)N[C@@H](CC(C)C)C(=O)N[C@@H](CCC(=O)O)C(=O)N[C@@H](CCC(N)=O)C(=O)N[C@@H](C)C(=O)N[C@@H](CCCNC(=N)N)C(=O)N[C@@H](C)C(=O)N[C@@H](CCCNC(=N)N)C(=O)N[C@@H](C)C(=O)N[C@@H](C)C(=O)N[C@@H](CCCNC(=N)N)C(=O)N[C@@H](CCC(=O)O)C(=O)N[C@@H](CCC(N)=O)C(=O)N[C@@H](C)C(=O)N[C@H](C(=O)N[C@H](C(=O)N[C@@H](CC(N)=O)C(=O)N[C@@H](C)C(=O)N[C@@H](CCCNC(=N)N)C(=O)N[C@H](C(=O)N[C@@H](CC(C)C)C(=O)N[C@@H](C)C(=O)N[C@@H](CCCNC(=N)N)C(=O)N[C@H](C(=O)NCC(=O)N[C@@H](Cc1cnc[nH]1)C(=O)N[C@@H](CS)C(N)=O)C(C)C)[C@@H](C)CC)[C@@H](C)O)[C@@H](C)O)[C@@H](C)CC)[C@@H](C)CC)C(C)C)C(C)C [Urocortin II]
- Emax (CRFR2 [5]; [14]): 725
- Emax (CRFR2 [5]; [15]): 442
- Emax (CRFR2 [5]; [16]): 206
- Emax (CRFR2 [5]; [17]): 159
- Emax (CRFR2 [5]; [18]): 263
- Emax (CRFR2 [5]; [24]): 57.3
- Emax (CRFR2 [5]; [20]): 72.8
- Emax (CRFR2 [5]; [21]): 1420
- Emax (CRFR2 [5]; [22]): 1090
- Emax (CRFR2 [5]; [23]): 1440
- pEC50 (CRFR2 [6]; [14]): 8.77
- pEC50 (CRFR2 [6]; [15]): 8.2
- pEC50 (CRFR2 [6]; [16]): 8.28
- pEC50 (CRFR2 [6]; [17]): 8.33
- pEC50 (CRFR2 [6]; [18]): 8.37
- pEC50 (CRFR2 [6]; [24]): 10.3
- pEC50 (CRFR2 [6]; [20]): 8.2
- pEC50 (CRFR2 [6]; [21]): 8.08
- pEC50 (CRFR2 [6]; [22]): 7.98
- pEC50 (CRFR2 [6]; [23]): 8.16

SMILES: [Cl][Zn][Cl] [Zn2+]
- Emax (GPR39 [7]; [11]): 136
- Emax (GPR39 [7]; [12]): 120
- Emax (GPR39 [7]; [13]): 210
- Emax (GPR39 [7]; [14]): 37.6
- Emax (GPR39 [7]; [15]): 254
- Emax (GPR39 [7]; [16]): 80.9
- Emax (GPR39 [7]; [17]): 137
- Emax (GPR39 [7]; [18]): 197
- Emax (GPR39 [7]; [19]): 113
- Emax (GPR39 [7]; [22]): 61.7
- Emax (GPR39 [7]; [23]): 41.4
- pEC50 (GPR39 [8]; [11]): 4.21
- pEC50 (GPR39 [8]; [12]): 5.39
- pEC50 (GPR39 [8]; [13]): 4.25
- pEC50 (GPR39 [8]; [14]): 4.38
- pEC50 (GPR39 [8]; [15]): 4.1
- pEC50 (GPR39 [8]; [16]): 4.19
- pEC50 (GPR39 [8]; [17]): 4.16
- pEC50 (GPR39 [8]; [18]): 4.25
- pEC50 (GPR39 [8]; [19]): 4.48
- pEC50 (GPR39 [8]; [22]): 4.03
- pEC50 (GPR39 [8]; [23]): 4.02

SMILES: CC/C=C\C/C=C\C/C=C\CCCCCCCC(=O)O [α-linolenic acid]
- Emax (FFA4 [9]; [11]): 288
- Emax (FFA4 [9]; [12]): 120
- Emax (FFA4 [9]; [13]): 297
- Emax (FFA4 [9]; [14]): 476
- Emax (FFA4 [9]; [15]): 35
- Emax (FFA4 [9]; [16]): 23.3
- Emax (FFA4 [9]; [17]): 64
- Emax (FFA4 [9]; [18]): 30.2
- Emax (FFA4 [9]; [19]): 198
- Emax (FFA4 [9]; [21]): 1090
- Emax (FFA4 [9]; [22]): 993
- Emax (FFA4 [9]; [23]): 999
- pEC50 (FFA4 [10]; [11]): 5.08
- pEC50 (FFA4 [10]; [12]): 4.8
- pEC50 (FFA4 [10]; [13]): 5.5
- pEC50 (FFA4 [10]; [14]): 5.53
- pEC50 (FFA4 [10]; [15]): 6.12
- pEC50 (FFA4 [10]; [16]): 6.31
- pEC50 (FFA4 [10]; [17]): 5.6
- pEC50 (FFA4 [10]; [18]): 6.27
- pEC50 (FFA4 [10]; [19]): 5.1
- pEC50 (FFA4 [10]; [21]): 4.7
- pEC50 (FFA4 [10]; [22]): 4.94
- pEC50 (FFA4 [10]; [23]): 4.87

— the supplement of paper PMC9005190
